Calls of active or inactive are those of the source. No cut-off for these calls is given here.

The species named for data set [1] is Rattus norvegicus. Nature of the data set: Displacement of [125I]apamin from rat cerebral cortex SKCa channel at 100 uM measured after 60 mins by scintillation counting method relative to control.
Data set [2] has as its target Translocator protein (Rattus norvegicus) (UniProt P16257). Nature of the data set: Displacement of [3H]PK 11195 from rat heart peripheral-type benzodiazepine receptor at 100 uM measured after 15 mins by scintillation counting method relative to control. (In general: Displacement assays read how much labelled ligand stays bound in the presence of the test substance.)

The test system of data set [3] is Rattus norvegicus. Kind of data set: Neurotoxicity in Sprague-Dawley rat assessed as behavioral change at 30 mg/kg, po measured at 1 hr post dose. Format: toxicity, organism-based. Conditions: in vivo.
For data set [4], the target named is 5-hydroxytryptamine receptor 5A (Homo sapiens) (UniProt P47898). Kind of data set: Displacement of [3H]LSD from human recombinant 5HT5A receptor expressed in HEK293 cells at 100 uM measured after 120 mins by scintillation counting method relative to control. Format: cell-based.
For data set [5], the system named is Mus musculus. Nature of the data set: Anticonvulsant activity in ip dosed maximal electroshock induced seizure mouse model assessed as suppression in hindlimb tonic extension by measuring time to peak effect. Type of data set: functional. (In general: Protection in the maximal electroshock model is a classic sign of anticonvulsant action.)
Data set [6] addresses 5-hydroxytryptamine receptor 7 (Homo sapiens) (UniProt P34969). Kind of data set: Displacement of [3H]LSD from human recombinant 5HT7 receptor expressed in CHO cells at 100 uM measured after 120 mins by scintillation counting method relative to control. Type of data set: cell-based.
Data set [7] has as its target Adrenergic receptor alpha-2 (Rattus norvegicus) (UniProt P22086+P19328+P22909). Kind of data set: Displacement of [3H]RX 821002 from rat cerebral cortex alpha-2 adrenergic receptor at 100 uM measured after 60 mins by scintillation counting method relative to control.
Data set [8] can be described thus: Neurotoxicity in ip dosed mouse. Format: toxicity, organism-based. Conditions: in vivo.
Data set [9] addresses Delta-type opioid receptor (Homo sapiens) (UniProt P41143). Nature of the data set: Displacement of [3H]DADLE from human recombinant delta opioid receptor expressed in CHO cells at 100 uM measured after 120 mins by scintillation counting method relative to control. Type of data set: cell-based.
The test system of data set [10] is Mus musculus. Nature of the data set: Anticonvulsant activity in maximal electroshock induced seizure mouse model assessed as suppression in hindlimb tonic extension at 300 mg/kg, ip measured at 0.5 hrs post dose. Type of data set: functional, organism-based.
Data set [11] has as its target Prostaglandin E2 receptor EP4 subtype (Homo sapiens) (UniProt P35408). Kind of data set: Displacement of [3H]PGE2 from human recombinant EP4 receptor expressed in HEK293 cells at 100 uM measured after 120 mins by scintillation counting method relative to control. Type of data set: cell-based.
For data set [12], the target named is T1, Muscarinic acetylcholine receptor M4 (Homo sapiens) (UniProt P08173).
T1 sequence (whole entry): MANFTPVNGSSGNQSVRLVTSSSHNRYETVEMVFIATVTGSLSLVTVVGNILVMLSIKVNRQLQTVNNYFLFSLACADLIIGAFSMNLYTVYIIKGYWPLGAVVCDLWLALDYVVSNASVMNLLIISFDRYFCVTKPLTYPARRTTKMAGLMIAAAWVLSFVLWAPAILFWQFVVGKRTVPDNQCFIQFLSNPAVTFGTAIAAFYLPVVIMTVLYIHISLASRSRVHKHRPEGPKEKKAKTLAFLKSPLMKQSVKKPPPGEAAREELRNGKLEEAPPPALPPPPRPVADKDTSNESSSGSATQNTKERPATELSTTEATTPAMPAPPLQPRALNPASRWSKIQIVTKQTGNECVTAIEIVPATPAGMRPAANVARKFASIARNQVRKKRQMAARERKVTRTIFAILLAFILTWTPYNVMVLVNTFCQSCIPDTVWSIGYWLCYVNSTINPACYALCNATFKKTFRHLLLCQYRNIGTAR
Kind of data set: Displacement of [3H]4-DAMP from human recombinant M4 receptor expressed in CHO cells at 100 uM measured after 60 mins by scintillation counting method relative to control. Type of data set: cell-based.

Data set [13] has as its target Adrenergic receptor alpha-1 (Rattus norvegicus) (UniProt P15823+P23944+P43140). Nature of the data set: Displacement of [3H]prazosin from rat cerebral cortex alpha-1 adrenergic receptor at 100 uM measured after 60 mins by scintillation counting method relative to control.
The next data set deals with Jurkat. Kind of data set: Displacement of [3H]DTG from sigma receptor in human Jurkat cells at 100 uM measured after 120 mins by scintillation counting method relative to control. Format: cell-based.
Data set [14] is described as follows: Protection index, ratio of TD50 for neurotoxicity in ip dosed mouse to ED50 for ip dosed 6-Hz induced seizure mouse model at 32 mA. Format: toxicity, organism-based. Conditions: in vivo, read-out: Ratio TD50/ED50.
The target of data set [15] is Melatonin receptor type 1A (Homo sapiens) (UniProt P48039). Nature of the data set: Displacement of [125I]2-iodomelatonin from human recombinant MT1 receptor expressed in CHO cells at 100 uM measured after 60 mins by scintillation counting method relative to control. Type of data set: cell-based.
For data set [16], the target named is Muscarinic acetylcholine receptor M3 (Homo sapiens) (UniProt P20309). Kind of data set: Displacement of [3H]4-DAMP from human recombinant M3 receptor expressed in CHO cells at 100 uM measured after 60 mins by scintillation counting method relative to control. Format: cell-based.
Data set [17] is described as follows: Protection index, ratio of TD50 for neurotoxicity in ip dosed mouse to ED50 for ip dosed 6-Hz induced seizure mouse model at 44 mA. Format: toxicity, organism-based. The conditions noted are these: in vivo, read-out: Ratio TD50/ED50.
Data set [18] deals with Mus musculus. Kind of data set: Neurotoxicity in mouse assessed as induction of motor impairment at 30 mg/kg, ip measured at 4 hrs post dose by rotarod method. Type of data set: toxicity, organism-based. Conditions: in vivo. (In general: In the rotarod test animals must keep their balance on a rotating rod.)
Data set [19] addresses T2, Cholecystokinin receptor type A (Homo sapiens) (UniProt P32238).
T2 sequence (whole entry): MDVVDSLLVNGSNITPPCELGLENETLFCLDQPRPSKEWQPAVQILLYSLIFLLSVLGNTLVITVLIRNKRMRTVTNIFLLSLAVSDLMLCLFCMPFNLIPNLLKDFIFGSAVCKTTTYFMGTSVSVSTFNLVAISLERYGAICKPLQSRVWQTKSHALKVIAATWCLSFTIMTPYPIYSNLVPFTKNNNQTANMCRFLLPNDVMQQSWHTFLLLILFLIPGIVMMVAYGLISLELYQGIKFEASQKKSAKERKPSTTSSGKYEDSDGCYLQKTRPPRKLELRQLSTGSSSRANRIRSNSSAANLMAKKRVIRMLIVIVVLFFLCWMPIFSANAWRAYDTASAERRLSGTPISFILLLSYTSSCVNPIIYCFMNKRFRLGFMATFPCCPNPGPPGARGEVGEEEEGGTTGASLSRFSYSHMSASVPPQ
Kind of data set: Displacement of [125I]CCK-8s from human recombinant CCK1 receptor expressed in CHO cells at 100 uM measured after 60 mins by scintillation counting method relative to control. Format: cell-based.

Melatonin receptor type 1A (Homo sapiens), sequence (P48039 whole entry): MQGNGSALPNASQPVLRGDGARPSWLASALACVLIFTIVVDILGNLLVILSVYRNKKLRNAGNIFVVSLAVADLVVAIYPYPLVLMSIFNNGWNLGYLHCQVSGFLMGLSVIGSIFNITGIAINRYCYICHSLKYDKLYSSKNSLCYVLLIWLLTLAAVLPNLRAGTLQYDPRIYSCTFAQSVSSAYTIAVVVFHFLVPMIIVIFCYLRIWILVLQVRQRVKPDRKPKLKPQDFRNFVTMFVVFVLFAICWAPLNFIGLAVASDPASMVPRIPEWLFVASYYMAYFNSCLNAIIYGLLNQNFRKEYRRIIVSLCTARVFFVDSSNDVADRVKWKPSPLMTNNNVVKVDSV
Muscarinic acetylcholine receptor M3 (Homo sapiens), sequence (P20309 whole entry, looked up): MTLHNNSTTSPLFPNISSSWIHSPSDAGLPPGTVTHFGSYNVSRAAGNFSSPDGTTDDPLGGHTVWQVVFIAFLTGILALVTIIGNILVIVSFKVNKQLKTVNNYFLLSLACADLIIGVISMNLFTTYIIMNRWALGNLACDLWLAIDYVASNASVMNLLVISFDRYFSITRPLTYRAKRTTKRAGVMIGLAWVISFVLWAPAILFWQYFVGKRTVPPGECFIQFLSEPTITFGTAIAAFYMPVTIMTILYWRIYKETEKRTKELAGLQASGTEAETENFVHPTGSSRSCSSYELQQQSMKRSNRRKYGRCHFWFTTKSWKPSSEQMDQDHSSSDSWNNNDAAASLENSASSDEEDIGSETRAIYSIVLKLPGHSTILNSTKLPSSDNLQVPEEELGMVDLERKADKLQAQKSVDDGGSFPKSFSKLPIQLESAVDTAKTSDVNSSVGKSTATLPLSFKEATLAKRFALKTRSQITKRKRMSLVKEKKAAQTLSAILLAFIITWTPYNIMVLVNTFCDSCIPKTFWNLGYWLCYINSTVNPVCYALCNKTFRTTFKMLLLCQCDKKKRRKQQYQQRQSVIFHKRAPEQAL
Prostaglandin E2 receptor EP4 subtype (Homo sapiens), sequence (P35408 whole entry): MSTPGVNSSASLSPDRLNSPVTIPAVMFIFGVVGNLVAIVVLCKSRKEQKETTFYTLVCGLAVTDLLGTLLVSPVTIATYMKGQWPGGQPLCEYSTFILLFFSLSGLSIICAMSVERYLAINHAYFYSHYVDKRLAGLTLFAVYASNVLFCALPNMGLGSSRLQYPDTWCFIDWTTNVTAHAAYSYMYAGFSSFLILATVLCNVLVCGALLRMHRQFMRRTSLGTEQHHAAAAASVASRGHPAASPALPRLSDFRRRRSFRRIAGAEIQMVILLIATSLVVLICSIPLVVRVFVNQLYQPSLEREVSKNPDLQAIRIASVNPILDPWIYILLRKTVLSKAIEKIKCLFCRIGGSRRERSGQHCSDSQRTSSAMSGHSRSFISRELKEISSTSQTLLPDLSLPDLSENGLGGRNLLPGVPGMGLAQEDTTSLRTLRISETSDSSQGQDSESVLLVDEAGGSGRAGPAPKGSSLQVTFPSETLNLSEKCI
5-hydroxytryptamine receptor 7 (Homo sapiens), sequence (P34969 whole entry): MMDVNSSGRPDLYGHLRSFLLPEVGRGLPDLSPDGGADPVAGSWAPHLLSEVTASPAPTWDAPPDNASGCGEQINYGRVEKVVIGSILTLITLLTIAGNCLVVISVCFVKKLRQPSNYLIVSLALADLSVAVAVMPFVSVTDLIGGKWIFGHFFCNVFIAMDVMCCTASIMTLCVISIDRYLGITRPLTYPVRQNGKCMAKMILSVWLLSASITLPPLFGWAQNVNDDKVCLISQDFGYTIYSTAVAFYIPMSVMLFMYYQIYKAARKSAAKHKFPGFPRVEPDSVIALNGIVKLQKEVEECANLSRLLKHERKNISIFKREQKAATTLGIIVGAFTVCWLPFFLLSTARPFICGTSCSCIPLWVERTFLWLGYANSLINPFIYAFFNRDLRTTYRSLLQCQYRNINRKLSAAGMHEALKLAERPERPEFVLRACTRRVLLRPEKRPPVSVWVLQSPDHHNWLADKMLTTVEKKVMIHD
Translocator protein (Rattus norvegicus), sequence (P16257 whole entry, looked up): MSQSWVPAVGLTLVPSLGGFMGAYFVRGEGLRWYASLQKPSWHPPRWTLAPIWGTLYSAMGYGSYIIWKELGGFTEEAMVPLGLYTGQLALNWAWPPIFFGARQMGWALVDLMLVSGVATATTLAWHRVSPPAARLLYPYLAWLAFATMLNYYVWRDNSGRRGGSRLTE
Delta-type opioid receptor (Homo sapiens), sequence (P41143 whole entry): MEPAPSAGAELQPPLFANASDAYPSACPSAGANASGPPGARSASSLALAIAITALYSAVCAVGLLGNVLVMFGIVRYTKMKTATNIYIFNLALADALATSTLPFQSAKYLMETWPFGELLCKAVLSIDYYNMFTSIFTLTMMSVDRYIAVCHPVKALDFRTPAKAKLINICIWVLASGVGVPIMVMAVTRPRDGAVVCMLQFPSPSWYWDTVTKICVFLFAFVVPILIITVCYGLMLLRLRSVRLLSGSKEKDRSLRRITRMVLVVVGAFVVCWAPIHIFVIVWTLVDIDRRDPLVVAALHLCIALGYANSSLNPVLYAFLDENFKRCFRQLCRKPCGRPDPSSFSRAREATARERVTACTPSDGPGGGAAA
5-hydroxytryptamine receptor 5A (Homo sapiens), sequence (P47898 whole entry): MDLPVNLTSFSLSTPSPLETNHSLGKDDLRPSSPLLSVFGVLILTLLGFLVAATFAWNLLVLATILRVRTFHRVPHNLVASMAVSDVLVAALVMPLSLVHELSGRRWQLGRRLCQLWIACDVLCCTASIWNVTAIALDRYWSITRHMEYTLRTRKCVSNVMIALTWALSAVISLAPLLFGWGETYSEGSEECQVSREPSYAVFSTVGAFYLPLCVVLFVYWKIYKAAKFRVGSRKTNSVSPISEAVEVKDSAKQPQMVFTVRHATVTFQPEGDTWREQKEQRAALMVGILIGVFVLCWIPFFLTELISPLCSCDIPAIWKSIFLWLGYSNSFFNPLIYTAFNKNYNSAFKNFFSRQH

As a reminder, the inhibition is the change of the read-out against control, counted positive when it falls. The TD50 is the 50% point of the dose-response relation for the toxic effect studied. Turning to `Cc1ccccc1/C=C/C(=O)N[C@@H](C)CO`, the inhibition in the data set listed under Rattus norvegicus [1] is -5.8%; in data set [2], 75.8%; in data set [4] it was 17.4%; in data set [6] it was 26.6%; in data set [7], 10.8%; in data set [9], 3%. The inhibition in data set [11] was 16.7%; in [12] it was -3.2%; in [13], 11.5%; with Jurkat it was -3.5%; in [15], 14.5%; in data set [16], -2%. Further, the inhibition in data set [19] is -5.8%. Also, the Activity entry with Rattus norvegicus [3] and in the data set with Mus musculus [18] was “Non-Toxic” each time. The Time with Mus musculus [5] worked out at 0.25 h. Besides, the TD50 in data set [8] came to 150 mg/kg. Besides, the result in the data set with Mus musculus [10] was Active. The selectivity ratio in [14] is 2.86; in [17], 3.55.

As to `CCC(CO)NC(=O)/C=C/c1ccc(Cl)cc1` (stereo not given), the inhibition in the data set listed under Rattus norvegicus [1] turned out to be 2.3%; in data set [2], 53%; in data set [4], 18.7%; in data set [6], 16.2%; in [7] it was 34.8%; in [9], 6%. Also, the inhibition in [11] amounted to 29.7%; in data set [12] it was 1.7%; in data set [13], 9.9%; with Jurkat, 25.4%; in data set [15], 4.3%; in data set [16] it was 1.5%. Moreover, in data set [19], the inhibition came to 11%. The Activity entry in the data set on Rattus norvegicus [3] and in the data set with Mus musculus [18] was “Non-Toxic” throughout. In addition, in the data set with Mus musculus [5], the Time worked out at 0.25 h. In data set [8], this compound had a TD50 of 196 mg/kg. Also, the result with Mus musculus [10] was Active. For the same compound, the selectivity ratio amounted to 3.41 in data set [14] and 2.12 in data set [17].

In the case of `CC(O)CNC(=O)/C=C/c1ccc(Cl)cc1` (stereo not given), the inhibition in the data set listed under Rattus norvegicus [1] is -2.5%; in data set [2] it was 8.1%; in data set [4] it was 19%; in data set [6], 43.5%; in [7], 25.1%; in data set [9], 3.2%. The inhibition in [11] was 23.6%; in [12], 8.9%; in data set [13] it was 17.3%; in the data set with Jurkat, 22.9%; in [15], 10.6%; in data set [16], 2.9%. Besides, the inhibition in data set [19] was 26%. For the same compound, the Activity entry in the data set on Rattus norvegicus [3] and with Mus musculus [18] was “Non-Toxic” throughout. Moreover, in the data set with Mus musculus [5], the Time turned out to be 0.5 h. Moreover, the TD50 in data set [8] was determined as 180 mg/kg. In addition, the outcome in the data set with Mus musculus [10] was Active. In addition, the selectivity ratio in data set [14] is 4.26; in data set [17] it was 3.51.
